These results are taken from patent US7419966B2, “[5-carboxamido or 5-fluoro]-[2′,3′-unsaturated or 3′-modified]-pyrimidine nucleosides” (Emory University, priority 1995, dated 2008).

Read-outs that look alike come from different tables or passages of the source.

Common to all, as to format: cell-based
One series concerns HIV-1 (strain LAV). Briefly: Anti-HIV-1 activity in PHA-stimulated human PBM cells (reverse transcriptase readout). Conditions: Table 1; HIV-1LAI; human PBM cells; estimated 10% error factor; read-out: Anti-HIV-1 in PBMC EC50. The method, then: The ability of nucleosides to inhibit HIV can be measured by various experimental techniques. The technique used herein, and described in detail below, measures the inhibition of viral replication in phytohemagglutinin (PHA) stimulated human peripheral blood mononuclear (PBM) cells infected with HIV-1. (strain LAV). The amount of virus produced is determined by measuring the virus-coded reverse transcriptase enzyme. The amount of enzyme produced is proportional to the amount of virus produced.
Three-day-old phytohemagglutinin-stimulated PBM cells (10^6 cells/ml) from hepatitis B and HIV-1 seronegative healthy donors were infected with HIV-1 (strain LAV) at a concentration of about 100 times the 50% tissue culture infectious dose (TICD 50) per ml and cultured in the presence and absence of various concentrations of antiviral compounds.
Approximately one hour after infection, the medium, with the compound to be tested (2 times the final concentration in medium) or without compound, was added to the flasks (5 ml; final volume 10 ml). AZT was used as a positive control.
The cells were exposed to the virus (about 2×10^5 dpm/ml, as determined by reverse transcriptase assay) and then placed in a CO2 incubator. HIV-1 (strain LAV) was obtained from the Center for Disease Control, Atlanta, Ga. The methods used for culturing the PBM cells, harvesting the virus and determining the reverse transcriptase activity were those described by McDougal et al. (J. Immun. Meth. 76, 171-183, 1985) and Spira et al. (J. Clin. Meth. 25, 97-99, 1987), except that fungizone was not included in the medium (see Schinazi, et al., Antimicrob. Agents Chemother. 32, 1784-1787 (1988); Id., 34:1061-1067 (1990)).
On day 6, the cells and supernatant were transferred to a 15 ml tube and centrifuged at about 900 g for 10 minutes. Five ml of supernatant were removed and the virus was concentrated by centrifugation at 40,000 rpm for 30 minutes (Beckman 70.1 Ti rotor). The solubilized virus pellet was processed for determination of the levels of reverse transcriptase. Results are expressed in dpm/ml of sampled supernatant. Virus from smaller volumes of supernatant (1 ml) can also be concentrated by centrifugation prior to solubilization and determination of reverse transcriptase levels.

For series [1], the system named is hepatitis B virus in transfected HepG-2 (2.2.15) cells. Put plainly: Anti-HBV activity in 2.2.15 cell cultures (HBV virion DNA and replicative intermediates). Conditions: for EC50 / EC90: Table 2, day 9; for activity against HBV, in words: text b71, b81. How it is done: The ability of the active compounds to inhibit the growth of virus in 2.2.15 cell cultures (HepG2 cells transformed with hepatitis virion) can be evaluated as described in detail below.
A summary and description of the assay for antiviral effects in this culture system and the analysis of HBV DNA has been described (Korba and Milman, 1991, Antiviral Res., 15:217). The antiviral evaluations were performed on two separate passages of cells. All wells, in all plates, were seeded at the same density and at the same time.
Due to the inherent variations in the levels of both intracellular and extracellular HBV DNA, only depressions greater than 3.5-fold (for HBV virion DNA) or 3.0-fold (for HBV DNA replication intermediates) from the average levels for these HBV DNA forms in untreated cells are considered to be statistically significant [P<0.05]. The levels of integrated HBV DNA in each cellular DNA preparation (which remain constant on a per cell basis in these experiments) were used to calculate the levels of intracellular HBV DNA forms, thereby ensuring that equal amounts of cellular DNA were compared between separate samples.
Typical values for extracellular HBV virion DNA in untreated cells ranged from 50 to 150 pg/ml culture medium (average of approximately 76 pg/ml). Intracellular HBV DNA replication intermediates in untreated cells ranged from 50 to 100 pg/μg cell DNA (average approximately 74 pg/μg cell DNA). In general, depressions in the levels of intracellular HBV DNA due to treatment with antiviral compounds are less pronounced, and occur more slowly, than depressions in the levels of HBV virion DNA (Korba and Milman, 1991, Antiviral Res., 15:217).

The test system of series [2] is 2.2.15 cells (HepG2 cells transformed with hepatitis virion). Briefly: Toxicity in 2.2.15 cells by neutral red dye uptake. Conditions: for toxicity, in words: HBV assay; for IC50: Table 2, 2.2.15 cells, read-out: Cytotoxicity IC50 ± SD. The method, then:
Toxicity analyses were performed to assess whether any observed antiviral effects were due to a general effect on cell viability. The method used herein was the measurement of the uptake of neutral red dye, a standard and widely used assay for cell viability in a variety of virus-host systems, including HSV and HIV. Toxicity analyses were performed in 96-well flat bottomed tissue culture plates. Cells for the toxicity analyses were cultured and treated with test compounds with the same schedule as described for the antiviral evaluations below. Each compound was tested at 4 concentrations, each in triplicate cultures (wells “A”, “B”, and “C”). Uptake of neutral red dye was used to determine the relative level of toxicity. The absorbance of internalized dye at 510 nm (Asin) was used for the quantitative analysis. Values are presented as a percentage of the average Asin values in 9 separate cultures of untreated cells maintained on the same 96-well plate as the test compounds. Dye uptake in the 9 control cultures on plate 5 ranged from 91.6% to 110.4%, and on plate 6 from 96.6% to 109%.

Series [3] has as its system uninfected human PBM cells. Put plainly: Toxicity in mitogen-stimulated uninfected human PBM cells (cell count, trypan blue exclusion). The settings on record: Table 1; uninfected human PBM cells, 6 days. The method, then: Mitogen stimulated uninfected human PBM cells (3.8×10^5 cells/ml) were cultured in the presence and absence of drug under similar conditions as those used for the antiviral assay described above. The cells were counted after 6 days using a hemacytometer and the trypan blue exclusion method, as described by Schinazi et al., Antimicrobial Agents and Chemotherapy, 22(3), 499 (1982). […]

The next series has as its system CEM cells. Put plainly: Toxicity in CEM cells. Conditions: Table 1.
A further series concerns Vero cells. Put plainly: Toxicity in Vero cells. The settings on record: Table 1.
For the next series, the system named is HSV-1F. Briefly: Anti-HSV-1 activity in Vero cells. Conditions: Table 1.
In another series the test system is HIV-2ROD2. Briefly: Anti-HIV-2 activity in PBMC. The settings on record: Table 1 footnote b; read-out: EC50 against HIV-2ROD2.
Another series deals with SIVSMM. Briefly: Anti-SIV activity in PBMC. Conditions: Table 1 footnote b; read-out: EC50 against SIVSMM.
Setting [4] is: extracellular DNA, untreated control 102 pg/ml, read-out: HBV virion EC50 ± SD.
The mark [5] stands for this setting: extracellular DNA, untreated control 102 pg/ml, read-out: HBV virion EC90 ± SD.
Setting [6] is: replicative intermediates (intracellular DNA), untreated control 87 pg/μg cell DNA, read-out: HBV RI EC50 ± SD.
Where [7] appears, read: replicative intermediates (intracellular DNA), untreated control 87 pg/μg cell DNA, read-out: HBV RI EC90 ± SD.

As to “5-carboxylic acid amide-2′,3′-dideoxy-3′-thiacytidine [C Carboxamide (+)-β-D]”, the EC50 (in general, the concentration that produces a half-maximal response) with HIV-1 (strain LAV) was 8.5 µM; in series [1] (setting [4]), 0.11 ± 0.012 µM; in [1] (setting [6]), 0.5 ± 0.04 µM. The EC90 (commonly the concentration needed for an effect of 90%) stood at 0.9 ± 0.1 µM in [1] (setting [5]) and 3.8 ± 0.3 µM in series [1] (setting [7]). The “activity against HBV, in words” value in series [1] was “significant activity against HBV”. Further, the “toxicity, in words” value in series [2] was “relatively nontoxic”. In addition, in series [2], the IC50 (in general, the concentration that gives 50% inhibition) amounted to 1120 ± 72 µM.
`Nc1cn([C@@H]2CS[C@H](CO)O2)c(=O)nc1N` (racemic) [C Amino (±)-β-DL]: the EC50 in the series with HIV-1 (strain LAV) was 26.4 µM. Moreover, the IC50 (in series [3]; in the series with CEM cells; in the series on Vero cells) was over 100 µM each time.
For `N#Cc1cn([C@@H]2CS[C@H](CO)O2)c(=O)nc1N` (racemic) [C Cyano (±)-β-DL], the EC50 in the series with HIV-1 (strain LAV) was over 100 µM. The IC50 (in series [3]; in the series on CEM cells; with Vero cells) was over 100 µM in each case.
As for `CCc1cn([C@@H]2CS[C@H](CO)O2)c(=O)nc1N` (racemic) [C Ethyl (±)-β-DL], the EC50 in the series with HIV-1 (strain LAV) was 102 µM. Moreover, the IC50 (in [3]; in the series on CEM cells; in the series on Vero cells) was over 100 µM each time.
For `C#Cc1cn([C@@H]2CS[C@H](CO)O2)c(=O)nc1N` (racemic) [C Ethynyl (±)-β-DL], the EC50 in the series on HIV-1 (strain LAV) is over 100 µM. Also, the half-inhibitory concentration (IC50) (in series [3]; with CEM cells; with Vero cells) was over 100 µM each time.
For the molecule `COC(=O)c1cn(C2CSC(CO)O2)c(=O)nc1N` (racemic) [C Methoxycarbonyl (±)-β-DL, 5-carboxylic acid methyl ester-2′,3′-dideoxy-3′-thiacytidine], the EC50 in the series with HIV-1 (strain LAV) is 38.9 µM. Moreover, the IC50 (in series [3]; in the series on CEM cells; in the series with Vero cells) was over 100 µM each time.
Take `CN(C)C(=O)c1cn([C@@H]2CS[C@H](CO)O2)c(=O)nc1N` (racemic) [C N,N-Dimethylaminoformyl (±)-β-DL]: the EC50 in the series with HIV-1 (strain LAV) is over 100 µM. For the same molecule, the concentration for half-maximal inhibition (IC50) (in [3]; in the series on CEM cells; in the series with Vero cells) was over 100 µM in each case.
As for `CNC(=O)c1cn([C@@H]2CS[C@H](CO)O2)c(=O)nc1N` (racemic) [C N-Methylaminoformyl (±)-β-DL], in the series with HIV-1 (strain LAV), the EC50 is over 100 µM. Moreover, the half-maximal inhibitory concentration (IC50) (in [3]; in the series on CEM cells; with Vero cells) was over 100 µM in each case.
For `Nc1nc(=O)n([C@@H]2CS[C@H](CO)O2)cc1[N+](=O)[O-]` (racemic) [C Nitro (±)-β-DL], in the series on HIV-1 (strain LAV), the EC50 was 100 µM. For the same molecule, the IC50 (in series [3]; in the series with CEM cells; in the series with Vero cells) was over 100 µM throughout.
Consider `Nc1cn([C@@H]2CS[C@H](CO)O2)c(=O)[nH]c1=O` (racemic) [U Amino (±)-β-DL], for which the EC50 with HIV-1 (strain LAV) is 119 µM. The half-maximal inhibitory concentration (IC50) (in [3]; in the series with CEM cells; in the series with Vero cells) was over 100 µM in each case.
For `NC(=O)c1cn([C@@H]2CS[C@H](CO)O2)c(=O)[nH]c1=O` (racemic) [U Carboxamide (±)-β-DL, 5-carboxamide-2′,3′-dideoxy-3′-thiauridine], the EC50 in the series with HIV-1 (strain LAV) is over 100 µM. Moreover, the IC50 (in [3]; in the series with CEM cells; with Vero cells) was over 100 µM in each case.
With `N#Cc1cn([C@@H]2CS[C@H](CO)O2)c(=O)[nH]c1=O` (racemic) [U Cyano (±)-β-DL], the EC50 in the series with HIV-1 (strain LAV) is over 100 µM. The IC50 (in [3]; in the series with CEM cells) was over 100 µM each time.
Regarding `CCc1cn([C@@H]2CS[C@H](CO)O2)c(=O)[nH]c1=O` (racemic) [U Ethyl (±)-β-DL], the EC50 with HIV-1 (strain LAV) is over 100 µM. Also, the IC50 (in series [3]; in the series with CEM cells; with Vero cells) was over 100 µM in each case.
For the molecule `C#Cc1cn([C@@H]2CS[C@H](CO)O2)c(=O)[nH]c1=O` (racemic) [U Ethynyl (±)-β-DL], the EC50 in the series with HIV-1 (strain LAV) is 23.8 µM. Moreover, the IC50 (in series [3]; in the series on CEM cells; in the series with Vero cells) was over 100 µM each time.
Turning to `COC(=O)c1cn([C@@H]2CS[C@H](CO)O2)c(=O)[nH]c1=O` (racemic) [U Methoxycarbonyl (±)-β-DL], the half-maximal effective concentration (EC50) in the series with HIV-1 (strain LAV) and in the series with HSV-1F was over 100 µM throughout. Moreover, the IC50 (in series [3]; in the series with CEM cells; with Vero cells) was over 100 µM in each case.
As to `O=c1[nH]c(=O)n([C@@H]2CS[C@H](CO)O2)cc1[N+](=O)[O-]` (racemic) [U Nitro (±)-β-DL], the EC50 in the series on HIV-1 (strain LAV) is 122 µM. Besides, the IC50 (in series [3]; in the series with CEM cells; with Vero cells) was over 100 µM throughout.
The molecule `Nc1nc2c(ncn2COCCO)c(=O)[nH]1` [Acyclovir, reference compound] gave an EC50 with HSV-1F (Human alphaherpesvirus 1, Vero) of 0.04 µM.
For `NC(=O)c1cn([C@@H]2CS[C@H](CO)O2)c(=O)nc1N` [C Carboxamide (−)-β-L, 5-carboxylic acid amide-2′,3′-dideoxy-3′-thiacytidine], the EC50 in the series with HIV-1 (strain LAV) was 3.6 µM; in the series on HIV-2ROD2, 1.6 µM; with SIVSMM it was 4 µM; in [1] (setting [4]) it was 0.29 ± 0.02 µM; in [1] (setting [6]) it was 1.3 ± 0.1 µM. Moreover, the IC50 is over 100 µM in series [3], over 100 µM in the series on CEM cells, over 100 µM with Vero cells and 1750 ± 212 µM in series [2]. For the same molecule, the EC90 came to 1.5 ± 0.2 µM in [1] (setting [5]) and 9.9 ± 0.8 µM in series [1] (setting [7]). In series [1], the “activity against HBV, in words” value was “significant activity against HBV”. In addition, the “toxicity, in words” value in series [2] was “relatively nontoxic”.
